Among the data in ChEMBL document CHEMBL1134086, “Discovery of potent and selective phenylalanine derived CCR3 receptor antagonists. Part 2” (Bioorg Med Chem Lett, 2001) are IC50 values, retold here.

A word on the IC50: it is the concentration that inhibits the measured activity by half.

Molecules are shown by their SMILES.

The species named for one experiment is Homo sapiens. Nature of the experiment: Ability to block the eotaxin induced intracellular calcium mobilization in primary human eosinophils was determined. It counts as functional. (A change in cytosolic calcium serves as a functional read-out for many receptors and channels.)
For the compound `C[C@H](NC(=O)[C@H](Cc1ccc(Cl)cc1)NC(=O)c1cccc2ccccc12)C(=O)Nc1ccccc1`, the half-inhibitory concentration (IC50) was found to be 15 nM.

`O=C(N[C@@H](Cc1ccc([N+](=O)[O-])cc1)C1=NCCO1)c1cccc2ccccc12`: the IC50 is 600 nM.

Consider `COC(=O)[C@H](Cc1ccc([N+](=O)[O-])cc1)NC(=O)c1cccc2ccccc12`, for which the IC50 is 38 nM.

A further experiment addresses T1, C-C chemokine receptor type 3 (Homo sapiens, UniProt P51677).
T1 sequence (P51677 whole entry): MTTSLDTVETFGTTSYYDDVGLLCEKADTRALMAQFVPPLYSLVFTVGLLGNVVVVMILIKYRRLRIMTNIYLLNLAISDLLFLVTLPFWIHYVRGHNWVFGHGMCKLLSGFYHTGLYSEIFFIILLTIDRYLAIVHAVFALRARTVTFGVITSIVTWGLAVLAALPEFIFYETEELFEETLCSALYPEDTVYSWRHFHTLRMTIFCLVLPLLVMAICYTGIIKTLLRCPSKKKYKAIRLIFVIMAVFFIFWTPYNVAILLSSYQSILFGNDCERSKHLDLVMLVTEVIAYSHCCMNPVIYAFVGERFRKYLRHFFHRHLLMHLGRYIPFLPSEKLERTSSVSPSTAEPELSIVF
Nature of the experiment: Antagonist activity against C-C chemokine receptor type 3. It counts as functional.
In turn, `CCOC(=O)[C@@H](C)NC(=O)[C@H](Cc1ccc([N+](=O)[O-])cc1)NC(=O)c1cccc2ccccc12` returned an IC50 of 3 nM.

For the compound `O=C(N[C@@H](Cc1ccc([N+](=O)[O-])cc1)c1ncco1)c1cccc2ccccc12` (racemic), the IC50 is greater than 33000 nM.

Compound `COc1ccc(NC(=O)[C@H](C)NC(=O)[C@H](Cc2ccc(Cl)cc2)NC(=O)c2cccc3ccccc23)cc1` registered an IC50 of 45 nM.

For `CC(NC(=O)[C@H](Cc1ccc([N+](=O)[O-])cc1)NC(=O)c1cccc2ccccc12)C(=O)N1CCCC1` (some centres not stated), the IC50 worked out at 1130 nM.

Compound `C[C@H](NC(=O)[C@H](Cc1ccc(Cl)cc1)NC(=O)c1cccc2ccccc12)C(=O)Nc1ccccc1` registered an IC50 of 5 nM.

For the compound `O=C(Nc1ccccc1)c1csc([C@H](Cc2ccc([N+](=O)[O-])cc2)NC(=O)c2cccc3ccccc23)n1`, the midpoint of inhibition, the IC50, lay at 7700 nM.

`C=C(NC(=O)[C@H](Cc1ccc([N+](=O)[O-])cc1)NC(=O)c1cccc2ccccc12)C(=O)OCC`: 350 nM corresponded to half-maximal inhibition (IC50).

`CC(NC(=O)[C@H](Cc1ccc([N+](=O)[O-])cc1)NC(=O)c1cccc2ccccc12)C(=O)NCc1ccccc1` (some centres not stated) had a concentration for half-maximal inhibition (IC50) of 300 nM.

`COc1ccc(NC(=O)[C@H](C)NC(=O)[C@H](CC2CCCCC2)NC(=O)c2cccc3ccccc23)cc1` had an IC50 of 700 nM.

`C[C@H](NC(=O)[C@H](Cc1ccc(Cl)cc1)NC(=O)c1cccc2ccccc12)C(=O)Nc1cccnc1`: 27 nM corresponded to half-maximal inhibition (IC50).

As to `C[C@H](NC(=O)[C@H](Cc1ccncc1)NC(=O)c1cccc2ccccc12)C(=O)Nc1ccc(-c2ccccc2)cc1`, the half-inhibitory concentration (IC50) was 600 nM.

Turning to `CCn1ccnc1[C@H](Cc1ccc([N+](=O)[O-])cc1)NC(=O)c1cccc2ccccc12` (racemic; form 3), inhibition was half-maximal at 17000 nM (IC50).

`O=C(N[C@@H](Cc1ccc([N+](=O)[O-])cc1)c1nnco1)c1cccc2ccccc12` (racemic): the IC50 is greater than 33000 nM.

`O=C(N[C@@H](Cc1ccc([N+](=O)[O-])cc1)C(=O)N[C@H](C(=O)Nc1ccccc1)c1ccccc1)c1cccc2ccccc12` gave an IC50 of 116 nM.

In turn, `CCOC(=O)[C@H](C)NC(=O)[C@H](Cc1ccc([N+](=O)[O-])cc1)NC(=O)c1cccc2ccccc12` showed an IC50 of 383 nM.

`O=C(N[C@@H](Cc1ccc([N+](=O)[O-])cc1)c1cnco1)c1cccc2ccccc12` (racemic): 22500 nM corresponded to half-maximal inhibition (IC50).

As for `COc1ccc(NC(=O)[C@H](C)NC(=O)[C@H](Cc2ccc(C#N)cc2)NC(=O)c2cccc3ccccc23)cc1`, half-maximal inhibition (IC50) required 90 nM.

Turning to `O=C(N[C@@H](Cc1ccc([N+](=O)[O-])cc1)c1nc(C(=O)N2CCc3ccccc3C2)cs1)c1cccc2ccccc12`, the IC50 stood at 12500 nM.

With `CCOC(=O)c1coc([C@H](Cc2ccc([N+](=O)[O-])cc2)NC(=O)c2cccc3ccccc23)n1`, half-maximal inhibition (IC50) was put at 500 nM.

In turn, `O=C(N[C@@H](Cc1ccc([N+](=O)[O-])cc1)c1nccs1)c1cccc2ccccc12` showed an IC50 of 32000 nM.

For `COc1ccc(NC(=O)[C@H](C)NC(=O)[C@H](Cc2ccncc2)NC(=O)c2cccc3ccccc23)cc1`, the IC50 is greater than 1220 nM.

Regarding `CCOC(=O)C1COC([C@H](Cc2ccc([N+](=O)[O-])cc2)NC(=O)c2cccc3ccccc23)=N1` (some centres not stated), the IC50 came out at 213 nM.

The compound `COc1ccccc1NC(=O)[C@H](C)NC(=O)[C@H](Cc1ccc(C#N)cc1)NC(=O)c1cccc2ccccc12` had an IC50 of 125 nM.

In the case of `C[C@@H](NC(=O)[C@H](Cc1ccc([N+](=O)[O-])cc1)NC(=O)c1cccc2ccccc12)C(=O)OC(C)(C)C`, the IC50 amounted to 20 nM.

`CCOC(=O)c1csc([C@H](Cc2ccc([N+](=O)[O-])cc2)NC(=O)c2cccc3ccccc23)n1` registered an IC50 of 663 nM.

The compound `CCn1ccnc1[C@H](Cc1ccc([N+](=O)[O-])cc1)NC(=O)c1cccc2ccccc12` (racemic; form 2) had an IC50 greater than 33000 nM.

The compound `C[C@@H](C(=O)Nc1ccccc1)N(C)C(=O)[C@H](Cc1ccc([N+](=O)[O-])cc1)NC(=O)c1cccc2ccccc12` registered an IC50 of 65 nM.

`COc1ccc(C[C@H](NC(=O)c2cccc3ccccc23)C(=O)N[C@@H](C)C(=O)Nc2ccc(C#N)cc2)cc1` registered an IC50 of 250 nM.

The compound `C[C@H](NC(=O)[C@H](Cc1ccc([N+](=O)[O-])cc1)NC(=O)c1cccc2ccccc12)C(=O)N(C)c1ccccc1` showed an IC50 of 600 nM.

The compound `O=C(N[C@@H](Cc1ccc([N+](=O)[O-])cc1)C1=NCCO1)c1cccc2ccccc12` had an IC50 of 563 nM.

Regarding `COc1ccc(NC(=O)[C@H](C)NC(=O)[C@H](Cc2cscn2)NC(=O)c2cccc3ccccc23)cc1`, the IC50 worked out at 500 nM.

Take `CCn1ccnc1[C@H](Cc1ccc([N+](=O)[O-])cc1)NC(=O)c1cccc2ccccc12` (racemic; form 1): the IC50 was greater than 33000 nM.

Regarding `C[C@H](NC(=O)[C@H](Cc1cscn1)NC(=O)c1cccc2ccccc12)C(=O)Nc1ccc(Cl)cc1`, the IC50 came to 800 nM.

Compound `C[C@H](NC(=O)[C@H](Cc1ccc([N+](=O)[O-])cc1)NC(=O)c1cccc2ccccc12)C(=O)Nc1ccccc1` came in with an IC50 of 190 nM.

Regarding `Cc1ccc(C(=O)N[C@@H](Cc2ccc(Cl)cc2)C(=O)N[C@@H](C)C(=O)Nc2ccc(Cl)cc2)c(C)c1`, the half-inhibitory concentration (IC50) was determined as 45 nM.

For `O=C(CNC(=O)[C@H](Cc1ccc([N+](=O)[O-])cc1)NC(=O)c1cccc2ccccc12)Nc1ccccc1`, the IC50 came to 400 nM.

In turn, `CCNC(=O)C(C)NC(=O)[C@H](Cc1ccc([N+](=O)[O-])cc1)NC(=O)c1cccc2ccccc12` (some centres not stated) returned an IC50 of 666 nM.

`COc1ccc(C[C@H](NC(=O)c2cccc3ccccc23)C(=O)N[C@@H](C)C(=O)Nc2ccccc2OC)cc1` gave an IC50 of 15 nM.

As to `CCNC(=O)c1csc([C@H](Cc2ccc([N+](=O)[O-])cc2)NC(=O)c2cccc3ccccc23)n1`, it took 18000 nM to reach half-maximal inhibition (IC50).
